Source: patent US9770445B2, “Sulfoximine substituted 5-fluoro-N-(pyridin-2-yl)pyridin-2-amine derivatives and their use as CDK9 kinase inhibitors” (BAYER PHARMA AKTIENGESELLSCHAFT, priority 2013, dated 2017)

Legend:
[1] = tested on: HeLa-MaTu-ADR, multidrug-resistant human cervical carcinoma cells; test: Proliferation assay, HeLa-MaTu-ADR (crystal violet); type: cell-based; conditions: 96 h, 4 days, read-out: Inhibition of HeLa-MaTu-ADR cell proliferation
Method: (§1) Cultivated tumour cells (HeLa, human cervical tumour cells, ATCC CCL-2; NCI-H460, human non-small cell lung carcinoma cells, ATCC HTB-177; A2780, human ovarian carcinoma cells, ECACC #93112519; DU 145, hormone-independent human prostate carcinoma cells, ATCC HTB-81; HeLa-MaTu-ADR, multidrug-resistant human cervical carcinoma cells, EPO-GmbH Berlin; Caco-2, human colorectal carcinoma cells, ATCC HTB-37; B16F10, mouse melanoma cells, ATCC CRL-6475) were plated at a density of 5,000 cells/well (DU145, HeLa-MaTu-ADR), 3,000 cells/well (NCI-H460, HeLa), 2,500 cells/well (A2780), 1,500 cells/well (Caco-2), or 1,000 cells/well (B16F10) in a 96-well multititer plate in 200 μL of their respective growth medium supplemented 10% fetal calf serum. After 24 hours, the cells of one plate (zero-point plate) were stained with crystal violet (see below), while the medium of the other plates was replaced by fresh culture medium (200 μl), to which the test substances were added in various concentrations (0 μM, as well as in the range of 0.001-10 μM; the final concentration of the solvent dimethyl sulfoxide was 0.5%). The cells were incubated for 4 days in the presence of test substances. Cell proliferation was determined by staining the cells with crystal violet: the cells were fixed by adding 20 μl/measuring point of an 11% glutaric aldehyde solution for 15 minutes at room temperature. After three washing cycles of the fixed cells with water, the plates were dried at room temperature. The cells were stained by adding 100 μl/measuring point of a 0.1% crystal violet solution (pH 3.0). After three washing cycles of the stained cells with water, the plates were dried at room temperature. The dye was dissolved by adding 100 μl/measuring point of a 10% acetic acid solution. The extinction was determined by photometry at a wavelength of 595 nm. The change of cell number, in percent, was calculated by normalization of the measured values to the extinction values of the zero-point plate (=0%) and the extinction of the untreated (0 μm) cells (=100%). The IC50 values (inhibitory concentration at 50% of maximal effect) were determined by means of a 4 parameter fit.

[2] = tested on: NCI-H460, human non-small cell lung carcinoma cells; test: Proliferation assay, NCI-H460 (crystal violet); type: cell-based; conditions: 96 h, NCI-H460, 4 days, read-out: Inhibition of NCI-H460 cell proliferation
Method: as §1

[3] = tested on: A2780, human ovarian carcinoma cells; test: Proliferation assay, A2780 (crystal violet); type: cell-based; conditions: 96 h, A2780, 4 days, read-out: Inhibition of A2780 cell proliferation
Method: as §1, with “The IC50 values (inhibitory concentration at 50% of maximal effect) were determined by means of a 4 parameter fit.” left out

CDK9/CycT1 = target: T1, CDK9/CycT1 (Homo sapiens, UniProt P50750); test: CDK9/CycT1 kinase assay (Method 1a, TR-FRET); type: biochemical; conditions: for IC50: Method 1a, 10 μM ATP; for Selectivity CDK9 over CDK2: IC50 (CDK2)/IC50 (CDK9): ratio of Method 2 to Method 1a values
T1 construct: Recombinant full-length His-tagged human CDK9 and CycT1; His; purchased Invitrogen PV4131; host or cells: insect cells
T1 sequence (P50750 whole entry): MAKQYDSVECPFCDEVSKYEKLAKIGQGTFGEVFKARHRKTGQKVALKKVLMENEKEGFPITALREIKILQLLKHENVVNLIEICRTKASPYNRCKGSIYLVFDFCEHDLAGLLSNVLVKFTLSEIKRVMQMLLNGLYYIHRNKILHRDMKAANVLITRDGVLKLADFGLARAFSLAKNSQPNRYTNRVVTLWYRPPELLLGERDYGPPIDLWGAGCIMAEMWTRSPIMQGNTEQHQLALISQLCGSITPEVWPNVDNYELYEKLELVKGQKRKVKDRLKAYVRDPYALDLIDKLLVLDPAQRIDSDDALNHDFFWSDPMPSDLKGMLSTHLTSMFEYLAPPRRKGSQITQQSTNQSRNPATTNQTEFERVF
T1 sequence (O60563 whole entry partner): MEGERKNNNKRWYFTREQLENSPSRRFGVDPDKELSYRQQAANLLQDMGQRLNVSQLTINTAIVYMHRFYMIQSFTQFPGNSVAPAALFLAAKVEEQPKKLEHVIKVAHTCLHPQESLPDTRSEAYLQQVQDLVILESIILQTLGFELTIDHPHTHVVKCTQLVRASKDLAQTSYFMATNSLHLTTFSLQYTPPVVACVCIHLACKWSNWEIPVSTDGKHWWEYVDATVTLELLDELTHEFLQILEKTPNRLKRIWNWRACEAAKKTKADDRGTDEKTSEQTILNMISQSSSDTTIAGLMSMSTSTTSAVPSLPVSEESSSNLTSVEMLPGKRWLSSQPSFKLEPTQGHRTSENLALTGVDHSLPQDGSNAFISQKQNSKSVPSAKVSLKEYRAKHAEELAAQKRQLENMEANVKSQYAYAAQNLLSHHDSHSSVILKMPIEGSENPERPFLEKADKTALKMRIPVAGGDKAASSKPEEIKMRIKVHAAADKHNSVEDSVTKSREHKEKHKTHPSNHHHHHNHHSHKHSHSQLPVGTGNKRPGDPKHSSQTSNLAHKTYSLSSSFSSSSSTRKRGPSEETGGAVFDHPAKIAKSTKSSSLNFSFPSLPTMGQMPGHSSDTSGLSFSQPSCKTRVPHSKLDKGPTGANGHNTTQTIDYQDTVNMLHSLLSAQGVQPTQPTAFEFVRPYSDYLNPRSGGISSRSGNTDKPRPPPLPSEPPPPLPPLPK
Excerpt: 1a. CDK9/CyeT1 Kinase Assay:
CDK9/CycT1-inhibitory activity of compounds of the present invention was quantified employing the CDK9/CycT1 TR-FRET assay as described in the following paragraphs:
Recombinant full-length His-tagged human CDK9 and CycT1, expressed in insect cells and purified by Ni-NTA affinity chromatography, were purchased from Invitrogen (Cat. No PV4131). As substrate for the kinase reaction biotinylated peptide biotin-Ttds-YISPLKSPYKISEG (C-terminus in amid form) was used which can be purchased e.g. form the company JERINI Peptide Technologies (Berlin, Germany). For the assay 50 nl of a 100 fold concentrated solution of the test compound in DMSO was pipetted into a black low volume 384 well microtiter plate (Greiner Bio-One, Frickenhausen, Germany), 2 μl of a solution of CDK9/CycT1 in aqueous assay buffer [50 mM Tris/HCl pH 8.0, 10 mM MgCl2, 1.0 mM dithiothreitol, 0.1 mM sodium ortho-vanadate, 0.01% (v/v) Nonidet-P40 (Sigma)] were added and the mixture was incubated for 15 min at 22° C. to allow pre-binding of the test compounds to the enzyme before the start of the kinase reaction. Then the kinase reaction was started by the addition of 3 μl of a solution of adenosine-tri-phosphate (ATP, 16.7 μM=>final conc. in the 5 μl assay volume is 10 μM) and substrate (1.67 μM=>final conc. in the 5 μl assay volume is 1 μM) in assay buffer and the resulting mixture was incubated for a reaction time of 25 min at 22° C. The concentration of CDK9/CycT1 was adjusted depending of the activity of the enzyme lot and was chosen appropriate to have the assay in the linear range, typical concentrations were in the range of 1 μg/mL. The reaction was stopped by the addition of 5 μl of a solution of TR-FRET detection reagents (0.2 μM streptavidine-XL665 [Cisbio Bioassays, Codolet, France] and 1 nM anti-RB(pSer807/pSer811)-antibody from BD Pharmingen [#558389] and 1.2 nM LANCE EU-W1024 labeled anti-mouse IgG antibody [Perkin-Elmer, product no. AD0077]) in an aqueous EDTA-solution (100 mM EDTA, 0.2% (w/v) bovine serum albumin in 100 mM HEPES/NaOH pH 7.0).
The resulting mixture was incubated 1 h at 22° C. to allow the formation of complex between the phosphorylated biotinylated peptide and the detection reagents. Subsequently the amount of phosphorylated substrate was evaluated by measurement of the resonance energy transfer from the Eu-chelate to the streptavidine-XL. Therefore, the fluorescence emissions at 620 nm and 665 nm after excitation at 350 nm was measured in a HTRF reader, e.g. a Rubystar (BMG Labtechnologies, Offenburg, Germany) or a Viewlux (Perkin-Elmer). The ratio of the emissions at 665 nm and at […] was taken as the measure for the amount of phosphorylated substrate. The data were normalised (enzyme reaction without inhibitor=0% inhibition, all other assay components but no enzyme=100% inhibition).

[4] = tested on: Caco-2, human colorectal carcinoma cells; test: Proliferation assay, Caco-2 (crystal violet); type: cell-based; conditions: 96 h, Caco-2, 4 days, read-out: Inhibition of Caco-2 cell proliferation
Method: as §1

[5] = tested on: DU 145, hormone-independent human prostate carcinoma cells; test: Proliferation assay, DU145 (crystal violet); type: cell-based; conditions: DU-145, 96 h, DU145, 4 days, read-out: Inhibition of DU145 cell proliferation
Method: as §1

[6] = tested on: HeLa, human cervical tumour cells; test: Proliferation assay, HeLa (crystal violet); type: cell-based; conditions: 96 h, 4 days, read-out: Inhibition of HeLa cell proliferation
Method: as §1

[7] = tested on: B16F10, mouse melanoma cells; test: Proliferation assay, B16F10 (crystal violet); type: cell-based; conditions: B16-F10, 96 h, B16F10, 4 days, read-out: Inhibition of B16F10 cell proliferation
Method: as §1

SMILES | IC50 [1] | IC50 [2] | IC50 [3] | IC50 (CDK9/CycT1) | Selectivity CDK9 over CDK2: IC50 (CDK2)/IC50 (CDK9) (CDK9/CycT1) | IC50 [4] | IC50 [5] | IC50 [6] | IC50 [7]
CS(=N)(=O)Cc1cc(F)nc(Nc2cc(-c3ccc(F)c4ccoc34)c(F)cn2)c1 (racemic) [Example 1, (rac)-5-Fluoro-4-(4-fluoro-1-benzofuran-7-yl)-N-{6-fluoro-4-[(S-methylsulfonimidoyl)methyl]pyridin-2-yl}pyridin-2-amine] | 30 nM | 36 nM | 11 nM | 4 nM | 11 | 34 nM | 33 nM | 30 nM | 41 nM
CS(=N)(=O)Cc1ccnc(Nc2cc(-c3ccc(F)c4ccoc34)c(F)cn2)c1 (racemic) [Example 5, (rac)-5-Fluoro-4-(4-fluoro-1-benzofuran-7-yl)-N-{4-[(S-methylsulfonimidoyl)methyl]pyridin-2-yl}pyridin-2-amine] | 42 nM | 120 nM | 29 nM | 3.4 nM | 38 | 46 nM | 55 nM | 31 nM | 53 nM
